Results reported in patent publication US4994376A, “Detection of bacteroides gingivalis” (priority 1987, dated 1991).
Values joined by “and” are separate entries in the source; they are usually repeats but may differ in a detail not shown here. Identical values can stand only once. Like-named read-outs stand apart in the source and are kept apart here. Peptide text beside a SMILES is read from it.

Columns and labels:
Assay type in all cases: biochemical
B. denticola = test: Aminopeptidase activity on β-naphthylamide substrates
Procedure: (§1) The enzyme activity was measured by the chromogenic properties of N-CBz-glycyl-glycyl-L-arginine-β-naphthylamide which upon hydrolysis gives a visible color. The aminopeptidase activities listed in the table reflect the nanomoles of β-naphthylamine liberated after 60 minutes under the conditions described below.
(§2) After mixing, the solution is incubated for 1 hour at 37° C. and then 0.4 ml of a solution of stabilized diazonium salt, Fast Garnet GBC (0.5 mg/ml) in a 1M acetic acid buffer (pH 4.2), containing 10% Tween 20 was added to the mixture. After standing for 15 minutes at room temperature, the color reaction can be read manually by comparison with standard solutions or the absorbancy can be determined using a spectrophotometer at 525 nm. The reaction mixture without enzyme solution is used as a control.

C. sputigena = test: as above
Procedure: as §1, §2

B. melaninogenicus = test: as above
Procedure: as §1, §2

B. corporis = test: as above
Procedure: as §1, §2

B. intermedius = test: as above
Procedure: as §1, §2

B. loescheii = tested on: B. loescheii
Procedure: as §1, §2

Capnocytophaga sp. = tested on: Capnocytophaga sp.
Procedure: as §1, §2

B. levii = tested on: B. levii
Procedure: as §1, §2

B. mel. ss. intermedius = tested on: B. mel. ss. intermedius
Procedure: as §1, §2

C. ochracea = tested on: C. ochracea
Procedure: as §1, §2

[1] = tested on: Capnocytophaga gingivalis
Procedure: as §1, §2

S. mutans = tested on: S. mutans
Procedure: as §1, §2
(§3) The enzyme activity and the aminopeptidase activities were determined in the manner described above in regard to Table I.

Campylobacter sputorum = tested on: Campylobacter sputorum
Procedure: as §1, §2, §3

S. sanguis = tested on: S. sanguis
Procedure: as §1, §2, §3

V. parvula = tested on: V. parvula
Procedure: as §1, §2, §3

Veillonella sp. = tested on: Veillonella sp.
Procedure: as §1, §2, §3

A. seminis = tested on: A. seminis
Procedure: as §1, §2, §3

Fusobacterium nucleatum = tested on: Fusobacterium nucleatum
Procedure: as §1, §2, §3

"Anaerobic vibrio" = tested on: "Anaerobic vibrio"
Procedure: as §1, §2, §3

Eikenella corrodens = tested on: Eikenella corrodens
Procedure: as §1, §2, §3

A. viscosus = tested on: A. viscosus
Procedure: as §1, §2, §3

A. equuli = test: Aminopeptidase activity on β-naphthylamide substrates
Procedure: as §1, §2, §3

Lactobacillus casei = test: as above
Procedure: as §1, §2, §3

L. fermentum = test: as above
Procedure: as §1, §2, §3

A. suis = test: as above
Procedure: as §1, §2, §3

Veillonella alcalesens = test: as above
Procedure: as §1, §2, §3

Haemophilus aphrophilus = test: as above
Procedure: as §1, §2, §3

F. periodonticum = test: as above
Procedure: as §1, §2, §3

NCCCC[C@H](N)C(=O)N1CCC[C@H]1C(=O)O [Lys-Pro, Lysyl-proline] (H-Lys-Pro-OH)
Aminopeptidase activity (B. denticola): 86
Aminopeptidase activity (C. sputigena): 86
Aminopeptidase activity (B. melaninogenicus): 70
Aminopeptidase activity (B. corporis): 75
Aminopeptidase activity (B. intermedius): 63
Aminopeptidase activity (B. loescheii): 81 and 89
Aminopeptidase activity (Capnocytophaga sp.): 35
Aminopeptidase activity (B. levii): 51 and 54
Aminopeptidase activity (B. mel. ss. intermedius): 54 and 75 and 69
Aminopeptidase activity (C. ochracea): 108
Aminopeptidase activity [1]: 176
Aminopeptidase activity (S. mutans): 14
Aminopeptidase activity (Campylobacter sputorum): 3
Aminopeptidase activity (S. sanguis): 5 and 4
Aminopeptidase activity (V. parvula): 0
Aminopeptidase activity (Veillonella sp.): 1
Aminopeptidase activity (A. seminis): 0
Aminopeptidase activity (Fusobacterium nucleatum): 2 and 1
Aminopeptidase activity (Fusobacterium nucleatum; strain D31A-24, β-naphthylamine liberated after 60 minutes, 37° C.): 2 nmol
Aminopeptidase activity ("Anaerobic vibrio"): 3
Aminopeptidase activity (Eikenella corrodens): 0
Aminopeptidase activity (A. viscosus): 5 and 7
Aminopeptidase activity (A. equuli): 0
Aminopeptidase activity (Lactobacillus casei): 0
Aminopeptidase activity (L. fermentum): 0
Aminopeptidase activity (A. suis): 0
Aminopeptidase activity (Veillonella alcalesens): 1
Aminopeptidase activity (Haemophilus aphrophilus): 0
Aminopeptidase activity (F. periodonticum): 1
